Assay results reported in the PolyMetriX glass transition set.
± gives the standard deviation of the reports.

glass transition temperature [°C] | Compound
223.00 | *c1ccc(Oc2ccccc2Oc2ccc(N3C(=O)c4ccc(Oc5ccc6c(c5)C(=O)N(*)C6=O)cc4C3=O)cc2C(F)(F)F)c(C(F)(F)F)c1 (repeat unit)
271.00 | *c1ccc(Oc2ccc(Oc3ccc(-n4c(=O)c5cc6c(=O)n(*)c(=O)c6cc5c4=O)cc3)cc2-c2ccccc2)cc1 (repeat unit)
345.00 | *c1ccc(-c2nc3cc(Oc4ccc(NC(=O)c5cc(C(=O)Nc6ccc(Oc7ccc8nc(-c9ccccc9)c(-c9ccc(N%10C(=O)c%11ccc%12c%13c(ccc(c%11%13)C%10=O)C(=O)N(*)C%12=O)cc9)nc8c7)cc6)cc(N6C(=O)c7ccccc7C6=O)c5)cc4)ccc3nc2-c2ccccc2)cc1 (repeat unit)
307.00 | *C(=O)Nc1ccc(S(=O)(=O)c2ccc(NC(=O)c3ccc4c(c3)C(=O)N(c3ccc(S(=O)(=O)c5ccc(N6C(=O)c7ccc(*)cc7C6=O)cc5)cc3)C4=O)cc2)cc1 (repeat unit)
145.00 | *Oc1ccc(Oc2ccc(C(=O)c3ccc(Oc4ccc(Oc5ccc(C(=O)c6ccc(*)c(C(C)C)c6)cc5)cc4)cc3)cc2C(C)C)cc1 (repeat unit)
195.00 | *c1ccc2c(c1)C(=O)N(c1cc(OCCCCCCCC)cc(N3C(=O)c4ccc(C(*)(C(F)(F)F)C(F)(F)F)cc4C3=O)c1)C2=O (repeat unit)
153.00 | *Oc1ccc(C(C)(C)c2ccc(Oc3ccc(C(=O)c4cccc(C(=O)c5ccc(*)cc5)c4)cc3)cc2)cc1 (repeat unit)
78.00 | *c1ccc2c(c1)C(=O)N(c1ccc(Oc3ccccc3-c3ccccc3Oc3ccc(N4C(=O)c5ccc(C(*)(C(F)(F)F)C(F)(F)F)cc5C4=O)cc3)cc1)C2=O (repeat unit)
230.00 | *CC1CC2CC1C1CCC(CN3C(=O)c4ccc(-c5ccc6c(c5)C(=O)N(*)C6=O)cc4C3=O)C21 (repeat unit)
252.00 | *C(=O)NNC(=O)c1ccc([Si](c2ccccc2)(c2ccccc2)c2ccc(C(=O)NNC(=O)c3ccc(*)o3)cc2)cc1 (repeat unit)
256.00 | *c1ccc(C(=O)Nc2cccc(S(=O)(=O)c3cccc(NC(=O)c4ccc(N5C(=O)c6ccc(-c7ccc8c(c7)C(=O)N(*)C8=O)cc6C5=O)cc4)c3)c2)cc1 (repeat unit)
262.00 | *Oc1ccc(S(=O)(=O)c2cccc3c(S(=O)(=O)c4ccc(Oc5c(C)cc(-c6cc(C)c(*)c(C)c6)cc5C)cc4)cccc23)cc1 (repeat unit)
230.00 | *Oc1ccc(S(=O)(=O)c2ccc(Oc3ccc(C(c4ccccc4)(c4ccccc4)c4ccc(*)cc4)cc3)cc2)cc1 (repeat unit)
217.00 | *C(=O)Oc1ccc(C2(c3ccc(OC(=O)c4ccc5c(c4)C(=O)N(c4ccc(-c6ccc(N7C(=O)c8ccc(*)cc8C7=O)cc6C)c(C)c4)C5=O)cc3)CCC(C(C)(C)C)CC2)cc1 (repeat unit)
364.00 | *c1ccc(-c2ccc(-c3ccc(-n4c(=O)c5cc6c(=O)n(*)c(=O)c6c(C(F)(F)F)c5c4=O)cc3)cc2)cc1 (repeat unit)

More lines, now with the values behind:

Compound | glass transition temperature [°C]
*CC1CC(*)C(OC(=O)CCCCCCCCCCOc2ccc(-c3ccc(C#N)cc3)cc2)C1 (repeat unit) | 30.50
*CCCCCCOC(=O)OCCCCCCOC(=O)OCCCCCCn1c(=O)c2cc3c(=O)n(*)c(=O)c3cc2c1=O (repeat unit) | 17.00
*Oc1ccc(OC(=O)c2ccc([Si](C)(C)c3ccc(C(*)=O)cc3)cc2)cc1 (repeat unit) | 176.00
*CC(*)C(=O)OCCOCC(F)(F)F (repeat unit) | -38.00
*CCOCCOP(=O)(/N=N/c1ccc(Oc2ccc(/N=N/P(=O)(O*)OC)cc2)cc1)OC (repeat unit) | 32.00
*CC(*)(C)C(=O)OC1CC(C)CCC1C(C)C (repeat unit) | 147.00
*CC(CO*)(CS(C)(=O)=O)CS(C)(=O)=O (repeat unit) | 126.00
*CCOc1ccc(C2(c3ccc(OCCO[Si](O*)(c4ccccc4)c4ccccc4)cc3)c3ccccc3-c3ccccc32)cc1 (repeat unit) | 97.00
*CCCCCCCCO* (repeat unit) [Polyoxyoctamethylene ] | -70 ± 34
*CC(*)(C)C(=O)OCCCCCCCCCCn1c2ccccc2c2cc(/C=C/C3=C(C#N)C(=C(C#N)C#N)OC3(C)C)ccc21 (repeat unit) | 55.00
*Oc1cccc2c(OC(=O)c3ccc(Oc4ccc(C(*)=O)cc4)cc3)cccc12 (repeat unit) | 171.00
*Oc1c(C)cc(-c2cc(C)c(OC(=O)CCCCCCCCC(*)=O)c(C)c2)cc1C (repeat unit) | 57.00
*CC(*)C(=O)OCC(C)(C)C (repeat unit) | 22.00
*CCN(CCOC(=O)/C=C/c1ccc(/C=C/C(=O)O*)cc1)c1ccc(/N=N/c2ccc([N+](=O)[O-])cc2)cc1 (repeat unit) | 120.00
*Oc1c(C)cc(C(C)(C)c2cc(C)c(OC(=O)c3cccc(C(*)=O)c3)c(C)c2)cc1C (repeat unit) | 187.00
*CCN(*)C(=O)c1c(F)cccc1F (repeat unit) | 121.50
*c1ccc(C(=O)OCCCCCCCCCCOc2ccc(/C=C/C(=O)/C=C/c3ccc(OCCCCCCCCCCOC(=O)c4ccc(-c5nnc(*)o5)cc4)cc3)cc2)cc1 (repeat unit) | 58.00
*CC(*)CCC (repeat unit) [Poly(propylethylene)] | -35 ± 46
*Oc1ccc(Oc2ccc(OC(=O)c3ccc(C(c4ccc(C(*)=O)cc4)(C(F)(F)F)C(F)(F)F)cc3)cc2)cc1 (repeat unit) | 215.00
*Oc1cc(CCCCCCCCCCCCC)cc(OC(=O)c2cccc(C(*)=O)c2)c1 (repeat unit) | 25.50
*Sc1ccc(Nc2ccc(Nc3ccc(*)cc3)cc2)cc1 (repeat unit) | 114.00
*OP(=O)(Oc1ccc(C(C)(C)c2ccc(*)cc2)cc1)Oc1c(Cl)cccc1Cl (repeat unit) | 96.00
*c1cccc(P(C)(=O)c2cccc(N3C(=O)c4ccc(NC(=O)OCCOc5c(Br)cc(C(C)(C)c6cc(Br)c(OCCOC(=O)Nc7ccc8c(c7)C(=O)N(*)C8=O)c(Br)c6)cc5Br)cc4C3=O)c2)c1 (repeat unit) | 191.00
*CCN(CCOC(=O)c1cc(OCc2c(F)c(F)c(OC)c(F)c2F)cc(C(=O)O*)c1)c1ccc(/C=C/c2ccc(/C=C/C3=C(C#N)C(=C(C#N)C#N)OC3(c3ccccc3)C(F)(F)F)s2)cc1 (repeat unit) | 140.00
*CC(*)(CC)C(=O)OCC (repeat unit) | 27.00
*CCN(*)C(=O)c1c(F)cc(F)cc1F (repeat unit) | 135.00
*CCOCCOC(=O)CCCCC(=O)O* (repeat unit) | -51.00
*c1ccc2c(c1)C(*)(C)CC2(C)C (repeat unit) | 215.50
*Oc1ccc(C(C)(CCC#N)c2ccc(OC(*)=O)c(C)c2)cc1C (repeat unit) | 117.00
*CC(*)(C)C(=O)Oc1ccc2c(c1)CCC2 (repeat unit) | 113.50
